# In patent US20110166163A1, “SUBSTITUTED FUROPYRIMIDINES AND USE THEREOF” (BAYER SCHERING PHARMA AKTIENGESELLSCHAFT, priority 2007, published 2011):
# Target: T1, prostacyclin receptors (IP receptors) (Homo sapiens, UniProt P43119)
# T1 construct: Thrombocyte membranes are obtained by centrifuging 50 ml of human blood; tissue Maco Pharma, Langen (buffy coats); host or cells: human thrombocyte (platelet) membranes from blood buffy coats
# Test: Binding to prostacyclin receptors (IP receptors) of human thrombocyte membranes
# Conditions: displacement of 3 nM 3H-Iloprost, 60 min, room temperature
# Experimental: Thrombocyte membranes are obtained by centrifuging 50 ml of human blood (Buffy coats with CDP Stabilizer, from Maco Pharma, Langen) for 20 min at 160×g. Remove the supernatant (platelet-rich plasma, PRP) and then centrifuge again at 2000×g for 10 min at room temperature. Resuspend the sediment in 50 mM tris(hydroxymethyl)amino-methane, which has been adjusted to a pH of 7.4 with 1 N hydrochloric acid, and store at −20° C. overnight. On the next day, centrifuge the suspension at 80 000×g and 4° C. for 30 min. Discard the supernatant. Resuspend the sediment in 50 mM tris(hydroxy-methyl)aminomethane/hydrochloric acid, 0.25 mM ethylene diamine tetraacetic acid (EDTA), pH 7.4, and then centrifuge once again at 80 000×g and 4° C. for 30 min. Take up the membrane sediment in binding buffer (50 mM tris(hydroxymethyl)-aminomethane/hydrochloric acid, 5 mM magnesium chloride, pH 7.4) and store at −70° C. until the binding test.
# For the binding test, incubate 3 nM ^3H-Iloprost (592 GBq/mmol, from AmershamBioscience) for 60 min with 300-1000 μg/ml of human thrombocyte membranes per charge (max. 0.2 ml) in the presence of the test substances at room temperature. After stopping, add cold binding buffer to the membranes and wash with 0.1% bovine serum albumin. After adding Ultima Gold Scintillator, quantify the radioactivity bound to the membranes using a scintillation counter. The nonspecific binding is defined as radioactivity in the presence of 1 μM Iloprost (from Cayman Chemical, Ann Arbor) and is as a rule <25% of the bound total radioactivity. The binding data (IC50 values) are determined using the program GraphPad Prism Version 3.02.
# T1 sequence (P43119 whole entry): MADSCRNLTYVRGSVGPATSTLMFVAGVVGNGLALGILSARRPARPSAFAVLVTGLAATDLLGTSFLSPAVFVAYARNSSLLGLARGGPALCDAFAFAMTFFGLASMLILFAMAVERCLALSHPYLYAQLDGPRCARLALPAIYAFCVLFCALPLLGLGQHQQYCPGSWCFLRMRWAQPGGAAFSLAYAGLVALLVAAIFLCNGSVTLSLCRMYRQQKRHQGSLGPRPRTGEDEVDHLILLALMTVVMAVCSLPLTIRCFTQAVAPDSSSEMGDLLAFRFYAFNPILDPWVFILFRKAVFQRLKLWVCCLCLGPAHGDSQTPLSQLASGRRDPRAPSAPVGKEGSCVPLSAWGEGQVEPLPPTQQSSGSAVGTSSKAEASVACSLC
row,SMILES,IC50
1,"C=Cc1ccc(-c2c(-c3ccccc3)oc3ncnc(NCCCCCC(=O)OC)c23)nc1 [Example 3, Methyl 6-{[6-phenyl-5-(5-vinylpyridin-2-yl)furo[2,3-d]pyrimidin-4-yl]amino}hexanoate]",105 nM
2,"CC1CC=C(c2c(-c3ccccc3)oc3ncnc(O[C@H](C)CCCCC(=O)O)c23)CC1 (stereo partly drawn) [Example 26, (6R)-6-{[5-(4-Methylcyclohex-1-en-1-yl)-6-phenylfuro[2,3-d]pyrimidin-4-yl]oxy}heptanoic acid]",1870 nM
3,COc1ccc(-c2c(C3=CCCCC3)oc3ncnc(O[C@H](C)CCCCC(=O)O)c23)cc1 [Example 24],72 nM
4,CCc1ccc(-c2c(-c3ccccc3)oc3ncnc(NCCCCCC(=O)O)c23)nc1 [Example 18],125 nM
5,COc1ccc(-c2c(-c3ccccn3)oc3ncnc(O[C@H](C)CCCCC(=O)O)c23)cc1 [Example 21],53 nM
6,"COc1ccc(-c2c(-c3cccs3)oc3ncnc(NCCCCCC(=O)O)c23)cc1 [Example 32, 6-{[5-(4-Methoxyphenyl)-6-(2-thienyl)furo[2,3-d]pyrimidin-4-yl]amino}hexanoic acid]",134 nM

# Other lines, results leading:
row,IC50,SMILES
1,193 nM,CCc1ccc(-c2c(-c3ccccn3)oc3ncnc(OC[C@H](C)OCCC(=O)O)c23)cc1 [Example 51]
2,56 nM,CCOC(=O)COC[C@@H](C)COc1ncnc2oc(-c3ccccn3)c(-c3ccc(OC)cc3)c12 [Example 37]
3,121 nM,COc1ccc(-c2c(-c3ncccc3F)oc3ncnc(O[C@H](C)CCCCC(=O)O)c23)cc1 [Example 48]
4,63 nM,CCc1ccc(-c2c(-c3ccccc3)oc3ncnc(OC[C@H](C)COCC(=O)O)c23)nc1 [Example 46]
5,19 nM,CCc1ccc(-c2c(-c3ccccn3)oc3ncnc(O[C@H](C)CCCCC(=O)O)c23)cc1 [Example 49]
